Patent US4661516A, “Diaminocyclohexane platinum complexes” (Research Corporation, priority 1984, dated 1987)
Values joined by “and” are separate entries in the source; they are usually repeats but may differ in a detail not shown here. Equal entries are not always repeated.

Key:
[1] = tested on: L1210 leukemia cells (L1210/PDD); assay: In vitro cytotoxicity / cross-resistance, L1210/PDD (L1210/DDP) cells resistant to cisdiamminedichloroplatinum(II); type: cell-based; settings: for ID50 L1210/DDP: Tables VII and VIII, 5760 min; for ID50 L1210/PDD: 96 hours
Experimental: Four ml of cell suspension were added to culture tubes and the appropriate concentration (0.01, 0.1, 1 or 10 μg/ml final drug concentration) was added. After 96 hours the cell concentration of control and experimental cultures were calculated with the aid of a Coulter Counter® Model ZBf and the percent inhibition calculated.

[2] = tested on: Wild type L1210 leukemic cells; assay: In vitro cytotoxicity, wild type L1210 leukemic cells (L1210/0); type: cell-based; settings: for ID50: L1210, 72 hours incubation
Experimental: Four ml of cell suspension (10^5 cells/ml) are added to culture tubes and the appropriate concentration (0.01, 0.1, 1 or 10 μg/ml final concentration) of drug added to the culture tubes. After 72 hours of incubation, the cell concentration of control and experimental cultures are determined with the aid of a Coulter Counter® Model ZBf and the percent inhibition calculated. […]

[3] = tested on: L1210 cells; assay: In vivo anti-tumor activity, L1210, single i.p. injection; design: species or system BDF1 mice
Experimental: About 24 hours after inoculation of the cells, the mice were injected intraperitoneally with varying dosages of complexes of the present invention. […] Long term survival signifies that animals were alive 60 days after inoculation with L1210 cells.

[4] = tested on: L1210/0 leukemia cells; assay: In vivo anti-tumor activity, L1210 (L1210/0), multiple i.p. doses; design: species or system BDF1 mice; settings: for Maximal Effective Dose: i.p. on days 1, 5 and 9
Experimental: BDF1 mice were inoculated intraperitoneally with 10^6 L1210 cells. About 24 hours after inoculation of the cells, the mice were injected intraperitoneally with varying dosages of complexes of the present invention. Six mice were used for each dosage level in each experiment with an equal number of control mice inoculated with 10^6 L1210 cells and left untreated with a given complex. The results [%T/C=(survival time of treated animals/survival time of control animals)×100] are set forth below. Long term survival signifies that animals were alive 60 days after inoculation with L1210 cells.
The procedure of Example 16 was repeated except that the treated animals were injected with multiple doses of the complex as indicated below:
The anti-tumor activity of compound number 3 was evaluated against cells sensitive to (L1210/0) and resistant to (L1210/PDD) the standard platinum complex cis-diamminedichloroplatinum(II).
The following complexes were tested in vivo oncolytic activity following 3 i.p. injections (days 1, 5, 9) according to the protocol described in Examples 16 and 17.
BDF1 mice were innoculated intraperitoreally with 10^6 L1210 leukemia cells and treatment was begun on the next day (day 1). Two treatment schedules, i.e. single i.p. injection of the drug and i.p. injections on days 1, 5 and 9 according to the protocol described in Examples 16 and 17 were used.

[5] = tested on: Male albino mice; assay: Acute toxicity, single intraperitoneal injection (Example 19); type: in vivo; settings: single i.p.; for Calculated LD10 / Calculated LD50 / Calculated LD90: 14 days
Experimental: Fourteen days after treatment all surviving mice were sacrified and the LD10, LD50 and LD90 were calculated.

[6] = tested on: B16 cells; assay: Melanotic melanoma test, i.p. inoculated B16 melanoma; type: in vivo, BDF1 mice; settings: for Maximal Effective Dose: B16, i.p. days 1, 5 and 9; for % T/C / Long Term Survivors: B16, i.p. days 1, 5 and 9, at maximal effective dose; for Long Term Survivors: 60 days
Experimental: The animals used were BDF1 mice, all of the same sex, weighing a minimum of 18 g. and all within a 4 g. weight range. There were 6 animals per test group. […] The test compounds were administered intraperitoneally on days 1, 5 and 9 at various doses. The animals were weighed and survivors were recorded on a regular basis for 60 days. The median survival time and the ratio of survival time for treated (T)/control (C) animals were calculated. […] The criterion for efficacy is T/C×100≥125%.

[7] = L1210/0, protocol of Example 14, Tables VII and VIII, 4320 min
[8] = Tables X and XI, days 1, 5 and 9, at maximal effective dose, alive 60 days after tumor inoculation
[9] = Tables X and XI, i.p. on days 1, 5 and 9, at maximal effective dose

| Compound | ID50 L1210/DDP [1] [µg/mL] | % T/C ([3]; single i.p., 25 mg/kg) [%] | % T/C ([3]; single i.p., 50 mg/kg) | ID50 L1210/PDD [1] [µg/mL] | ID50 [2] [µg/mL] | ID50 L1210/0 [2, 7] [µg/mL] | Long Term Survivors [4, 8] | Maximal Effective Dose ([4]; Tables X and XI) [mg/kg] | % T/C [4, 9] | Maximal Effective Dose [6] [mg/kg] | % T/C [6] [%] | Long Term Survivors [6] | also measured |
| --- | --- | --- | --- | --- | --- | --- | --- | --- | --- | --- | --- | --- | --- |
| NC1CCCCC1N.O=C1OC(C(O)CO)C([O-])=C1O.O=C1OC(C(O)CO)C([O-])=C1O.[Pt+2] (mixture of isomers) [Compound 7, cis-bis-isoascorbato(DACH)Pt(II).3H2 O] | 3.8 | 132 | 136% | – | – | – | – | – | – | – | – | – | ID50 ([2]; 4320 min): 4.1 µg/mL; % T/C ([3]; single i.p., 100 mg/kg): 196%; animals died of apparent drug toxicity ([3]; single i.p., 100 mg/kg): 2/6; Long Term Survivors ([3]; single i.p., 100 mg/kg, alive 60 days after inoculation): 1/6; % T/C ([4]; 12.5 mg/kg, days 1,5,9): 151%; % T/C ([4]; 25 mg/kg, days 1,5,9): 179%; % T/C ([4]; 50 mg/kg, days 1,5,9): 212% |
| N[C@@H]1CCCC[C@H]1N.O=C1O[C@H]([C@@H](O)CO)C([O-])=C1O.O=C1O[C@H]([C@@H](O)CO)C([O-])=C1O.[Pt+2] [Compound 4, cis-bis-ascorbato(trans-R,R--DACH)Pt(II).3H2 O] | – | 128 | 184% | 0.4 | 1.9 | – | – | – | – | – | – | – | Long Term Survivors (LTS) ([3]; single i.p., 50 mg/kg, alive 60 days after inoculation): 1/6; % T/C ([4]; 25 mg/kg, days 1,5,9): 218%; % T/C ([4]; 50 mg/kg, days 1,5,9): 144% |
| N[C@H]1CCCC[C@@H]1N.O=C1O[C@H]([C@@H](O)CO)C([O-])=C1O.O=C1O[C@H]([C@@H](O)CO)C([O-])=C1O.[Pt+2] [Compound 5, cis-bis-ascorbato(trans-S,S--DACH)Pt(II).2H2 O] | – | 136 | Toxic | 2.3 | 4.4 | – | – | – | – | – | – | – | DEATHS/TREATED ([5]; 60 mg/kg): 0/6; DEATHS/TREATED ([5]; 80 mg/kg): 2/6; DEATHS/TREATED ([5]; 100 mg/kg): 5/6; DEATHS/TREATED ([5]; 125 mg/kg): 6/6; DEATHS/TREATED ([5]; 160 mg/kg): 5/6; Calculated LD10 [5]: 70 mg/kg; Calculated LD50 [5]: 90 mg/kg; Calculated LD90 [5]: 125 mg/kg |
| NC1CCCCC1N.O=C1O[C@H]([C@@H](O)C(=O)[O-])[C@H](O)[C@H]1O.O=C1O[C@H]([C@@H](O)C(=O)[O-])[C@H](O)[C@H]1O.[Pt+2] [Compound 9, cis-bis-D-saccharato-1,4-lactone(DACH)Pt(II)] | – | 138 | 156% | 0.6 | 3.0 | – | – | – | – | – | – | – | DEATHS/TREATED ([5]; 85 mg/kg): 0/6; DEATHS/TREATED ([5]; 100 mg/kg): 0/6; DEATHS/TREATED ([5]; 125 mg/kg): 3/6; DEATHS/TREATED ([5]; 158 mg/kg): 5/6; DEATHS/TREATED ([5]; 200 mg/kg): 4/6; Calculated LD10 [5]: 100 mg/kg; Calculated LD50 [5]: 140 mg/kg; Calculated LD90 [5]: 185 mg/kg; % T/C ([3]; single i.p., 12.5 mg/kg): 127%; % T/C ([3]; single i.p., 100 mg/kg): Toxic |
| NC1CCCCC1N.O=C([O-])C1CCCN1.O=C([O-])C1CCCN1.[Pt+2] [Compound 16, cis-bis-L-prolinato(DACH)Pt(II)] | 2.5 | 165 | 165% | – | 4.0 | – | – | – | – | – | – | – | % T/C ([3]; single i.p., 12.5 mg/kg): 144%; % T/C ([3]; single i.p., 100 mg/kg): 162%; animals died of apparent drug toxicity ([3]; single i.p., 100 mg/kg): 1 animals |
| NC(=O)CN(CC(=O)[O-])CC(=O)[O-].NC1CCCCC1N.[Pt+2] [Compound 42, N--(2-Acetamido)-iminodiacetato(DACH)Pt(II).1/2H2 O] | 1.8 | – | – | – | 0.7 | 3.0 | – | – | – | – | – | – | – |
| N.N.[Cl][Pt][Cl] [DDP, diamminedichloroplatinum II, reference compound] | – | – | – | 5.5 | – | – | 1/6 | 5 | 210% and 220% | 5 | 172 | 1/6 | ID50 L1210/0 ([2]; L1210/0, Example 15 table, 4320 min): 0.1 µg/mL; Maximal Effective Dose ([3]; Table IX, single i.p. injection): 9 mg/kg; % T/C ([3]; Table IX, single i.p., at maximal effective dose): 150% |
| CN(CC(=O)[O-])CC(=O)[O-].N[C@@H]1CCCC[C@H]1N.[Pt+2] [Identifier No. 11a, mono-N--methyliminodiacetato] | 1.9 | – | – | – | – | 0.8 | 6/6 | 6.25 | 700% | 25 | 210 | 2/6 | – |
| N[C@@H]1CCCC[C@H]1N.O=C([O-])CN(CCO)CC(=O)[O-].[Pt+2] [Identifier No. 12a, mono-N--hydroxyethyliminodiacetato] | 1.8 | – | – | – | – | 1.4 | 2/6 | 6.25 | 384% | 25 | 265 | 4/6 | – |
| cis-bis-D-monosaccharato(DACH)Pt(II).3H2 O [Compound 8] | – | 129 | 156% | 0.9 | 2.8 | – | – | – | – | – | – | – | DEATHS/TREATED ([5]; 100 mg/kg): 1/6; DEATHS/TREATED ([5]; 125 mg/kg): 1/6; DEATHS/TREATED ([5]; 158 mg/kg): 4/6; DEATHS/TREATED ([5]; 200 mg/kg): 3/6; DEATHS/TREATED ([5]; 250 mg/kg): 6/6; Calculated LD10 [5]: 115 mg/kg; Calculated LD50 [5]: 155 mg/kg; Calculated LD90 [5]: 220 mg/kg; % T/C ([3]; single i.p., 12.5 mg/kg): 120%; % T/C ([3]; single i.p., 100 mg/kg): 151%; % T/C ([3]; single i.p., 200 mg/kg): Toxic; % T/C ([4]; 25 mg/kg, days 1,5,9): 206%; % T/C ([4]; 50 mg/kg, days 1,5,9): 225%; Long Term Survivors ([4]; 50 mg/kg, days 1,5,9): 1/6 |
| furanedicarboxylato(DACH)Pt(II) [Compound 19] | 0.9 | 136 | Toxic | – | 1.0 | – | – | – | – | – | – | – | % T/C ([3]; single i.p., 6.25 mg/kg): 143%; % T/C ([3]; single i.p., 12.5 mg/kg): 136% |
| isocitratomonoethylester(DACH)Pt(II).1.5H2 O [Compound 21] | 1.9 | – | – | – | 2.0 | – | – | – | – | – | – | – | – |
| mono-N--benzyliminodiacetato [Identifier No. 15a] | 2.4 | – | – | – | – | 1.0 | 4/6 | 6.25 | 620% | 12.5 | 252 | 3/6 | – |
| mono-N--phenyliminodiacetato [Identifier No. 14a] | 0.6 | – | – | – | – | 0.7 | 4/6 | 6.25 | 578% | 25 | 160 | 3/6 | – |
